In patent US20190307886A1, “A CO-AMORPHOUS FORM OF A SUBSTANCE AND A PROTEIN” (University of Copenhagen, priority 2016, published 2019):

Columns and labels:
Format in all cases: physicochemical
[1] = Intrinsic dissolution rate from powder compacts; conditions: for y (mg cm^−2 min^−1), line equation of intrinsic dissolution testing; slope = intrinsic dissolution rate: Table 2a, 0.1 M phosphate buffer pH 7.2, 37° C., 50 rpm; for intrinsic dissolution rate (IDR): phosphate buffer pH 7.2, 37° C.
Procedure: The intrinsic dissolution rate (IDR) was determined from powder compacts obtained with a hydraulic press (PerkinElmer, Hydraulische Presse Model IXB-102-9, Ueberlingen, Germany). Ball-milled powders of pure drug and spray dried powders of drug-protein mixtures were compressed into tablets. Tablets of 150 mg were directly compressed into stainless steel cylinders that served as intrinsic dissolution sample holders at a pressure of 124.9 MPa for 45 secs. […] These cylinders were then placed in 900 ml of 0.1 M phosphate buffer (pH 7.2, 37° C.) dissolution medium and stirred using a magnetic bar at a rotation speed of 50 rpm. At predetermined time points (1, 5, 10, 15, 20, 25 and 30 min, some IDRs were only determined up to 20 min), 5 ml aliquots were withdrawn and immediately replaced with dissolution buffer. The obtained samples were then analyzed using UV spectrophotometer (see below). All dissolution experiments were conducted in triplicate.

[2] = Thermogravimetric analysis for measurement of residual moisture; conditions: Table 1a; amorphous drugs and spray dried forms with WPI, WPH, WPI components, digested WPI, PVP
Procedure: Thermogravimetric analysis for measurement of residual moisture:
Thermogravimetric analysis was performed on a TGA Discovery instrument (TA Instruments, New Castle, USA). Samples of 10 mg were placed in a platinum pan and sealed with a lid and heated from 25 to 300° C. at 10° C./min. Resulting weight-temperature diagrams were analyzed using Trios software (TA Instruments, New Castle, USA) to calculate the weight loss between 25 and 150° C.

[3] = Physical stability on storage over silica gel at room temperature, XRPD; conditions: recrystallization shown by XRPD
Procedure: The molecular interactions of the drug substance-WPI/WPH mixtures were investigated by XRPD using an X'Pert PANanalytical PRO X-ray diffractometer (PANanalytical, Almelo, The Netherlands) with Cukα radition: 1.54187 Å, current: 40 mA and acceleration voltage: 45 kV. Each of the co-amorphous forms obtained either by spray drying or ball milling were scanned (scan rate of 0.067° 2θ/s and step size of 0.026°) with reflectance mode between 2° and 35° 2θ. The collected data was analysed using X'Pert PANanalytical Collector software (PANanalytical, Almelo, The Netherlands).
All samples were stored in a desiccator over silica gel (0% relative humidity) at room temperature and a physical stability study was performed for all SD samples. Each sample was analyzed by XRPD at day 0 and subsequently once every month thereafter.

[4] = Powder dissolution (USP II apparatus)
Procedure: Powder dissolution was performed in USP type II apparatus. […] The dissolution paddles were rotated at 50 rpm […] taking samples out at 1, 3, 5, 7, 10, 15, 20, 25, 30, 35, 40, 50, 60 and 120 mins. Each sample of 5 ml was taken out and replaced by dissolution medium. To separate powders from medium, the samples were filtered through a 0.45 μm syringe filter (Qmax, Frisinette ApS) and the first 2 ml was discarded to minimize losses due to adsorption. The samples were examined using UV Vis to analyze the drug concentration.

y (mg cm^−2 min^−1), line equation of intrinsic dissolution testing; slope = intrinsic dissolution rate [1] | TGA (residual moisture content in %) [2] [%] | time found to be stable (in words) [3] | SMILES | other results
y = 0.0214x + 2.973 mg cm^−2 min^−1 | 3.1 ± 0.3 | less than a week | COc1ccccc1OCCNCC(O)COc1cccc2[nH]c3ccccc3c12 (centres unmarked) [A CAR, carvedilol] | intrinsic dissolution rate (IDR) ([1]; listed as ball milled amorphous CAR): 0.0214 mg cm^−2 min^−1; fold increase in IDR compared to crystalline CAR ([1]; vs C CAR): 1.8 fold
y = 0.0117x + 2.8082 mg cm^−2 min^−1 |  |  | COc1ccccc1OCCNCC(O)COc1cccc2[nH]c3ccccc3c12 (centres unmarked) [C CAR, carvedilol] | intrinsic dissolution rate (IDR) ([1]; listed as crystalline CAR): 0.0117 mg cm^−2 min^−1
y = 0.0787x + 4.006 mg cm^−2 min^−1 |  |  | COc1ccc2c(c1)c(CC(=O)O)c(C)n2C(=O)c1ccc(Cl)cc1 [C IND, indomethacin] | intrinsic dissolution rate (IDR) ([1]; listed as crystalline IND): 0.0787 mg cm^−2 min^−1

Second part, the compound before the results:

SMILES | y (mg cm^−2 min^−1), line equation of intrinsic dissolution testing; slope = intrinsic dissolution rate [1] | TGA (residual moisture content in %) [2] [%] | time found to be stable (in words) [3] | other results
NS(=O)(=O)c1cc(C(=O)O)c(NCc2ccco2)cc1Cl [A FUR, furosemide] |  | 3.6 ± 0.3 | less than a week | 
COc1ccc2c(c1)c(CC(=O)O)c(C)n2C(=O)c1ccc(Cl)cc1 [A IND, indomethacin] | y = 0.1333x + 4.5538 mg cm^−2 min^−1 | 3.2 ± 0.4 | less than a week | intrinsic dissolution rate (IDR) ([1]; listed as amorphous ball milled IND): 0.1333 mg cm^−2 min^−1; powder dissolution (comparison in words) ([4]; USP type II, 200 mg in 50 ml phosphate buffer pH 7.2, 50 rpm): more dissolution than the PM IND-WPI; solubility of IND in its amorphous state ([4]; phosphate buffer pH 7.2, vs crystalline IND): more than double the value crystalline IND
CC(=O)Nc1ccc(O)cc1 [A PAR, paracetamol] | y = 0.201x + 4.5947 mg cm^−2 min^−1 |  | less than a week | intrinsic dissolution rate (IDR) ([1]; listed as ball milled amorphous PAR): 0.201 mg cm^−2 min^−1; fold increase in IDR compared to crystalline PAR ([1]; vs C PAR): 1.2 fold
CC(=O)Nc1ccc(O)cc1 [C PAR, paracetamol] | y = 0.1632x + 2.3462 mg cm^−2 min^−1 |  |  | intrinsic dissolution rate (IDR) ([1]; listed as crystalline PAR): 0.1632 mg cm^−2 min^−1
